Results on 15 compounds are retold here after patent US20230107642A1 (Erasca, Inc., priority 2020, published 2023).

The structures appear in SMILES notation.

The target in the first experiment is T1, Cys12 of the KRAS 4B G12C protein (Homo sapiens, UniProt P01116, G12C).
T1 construct: This protein contained 188 amino acids in total, including an N-terminal 6-Histidine tag; made in house; host or cells: E. coli BL21
Briefly: In vitro covalent adduct formation (CAF) assay, LC-MS intact mass. The class given is binding. The settings on record: 10 uM compound, 60 min. The gist of the method:
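Percent covalent modification from intact-mass LC-MS, by relative free versus adducted protein (adducts within 1 Da of expected mass). Reaction: 10 μM compound with 5 μM E. coli-expressed, GDP-exchanged KRAS 4B G12C in TBS pH 7.4, 4% DMSO, 1 h at 22° C.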
`C=CC(=O)N1[C@H](C)CN(c2nc(=O)n3c4c(c(-c5cc(Cl)c(F)cc5F)c(C(F)(F)F)cc24)SC[C@@H]3CN2C[C@@H]3C[C@H]2CO3)C[C@@H]1C` [Example 1302, (3S)-3-(((1S,4S)-2-oxa-5-azabicyclo[2.2.1]heptan-5-yl)methyl)-7-((3S,5R)-4-acryloyl-3,5-dimethylpiperazin-1-yl)-10-(5-chloro-2,4-difluorophenyl)-9-(trifluoromethyl)-2,3-dihydro-5H-[1,4]thiazino[2,3,4-ij]quinazolin-5-one]: the “% CAF 10 uM @ 60 min” value turned out to be 78.9%.

`C=CC(=O)N1C[C@H](C)N(c2nc(=O)n3c4c(c(-c5cc(Cl)c(F)cc5F)c(C(F)(F)F)cc24)SC[C@@H]3CN2C[C@@H]3C[C@H]2CO3)C[C@H]1C` [Example 1304]: the “% CAF 10 uM @ 60 min” value worked out at 87%.

In the case of `C=CC(=O)N1C[C@H](C)N(c2nc(=O)n3c4c(c(-c5cc(Cl)c(F)cc5F)c(C(F)(F)F)cc24)SC[C@@H]3CN2CCN(C3CC3)CC2)C[C@H]1C` [Example 1307, (3S)-7-((2S,5R)-4-acryloyl-2,5-dimethylpiperazin-1-yl)-10-(5-chloro-2,4-difluorophenyl)-3-((4-cyclopropylpiperazin-1-yl)methyl)-9-(trifluoromethyl)-2,3-dihydro-5H-[1,4]thiazino[2,3,4-ij]quinazolin-5-one], the “% CAF 10 uM @ 60 min” value turned out to be 69.7%.

For the compound `[2H]C1([2H])N(C(=O)C=C)C([2H])([2H])C([2H])([2H])N(c2nc(=O)n3c4c(c(-c5cc(Cl)c(F)cc5F)c(C(F)(F)F)cc24)SCC2(COC2)C3)C1([2H])[2H]` [Example 1309, 8′-(4-acryloylpiperazin-1-yl-2,2,3,3,5,5,6,6-d8)-11′-(5-chloro-2,4-difluorophenyl)-10′-(trifluoromethyl)-2′H,4′H,6′H-spiro[oxetane-3,3′-[1,4]thiazepino[2,3,4-ij]quinazolin]-6′-one], the “% CAF 10 uM @ 60 min” value is reported as 97%.

On to `C=CC(=O)N1C[C@H](C)N(c2nc(=O)n3c4c(c(-c5cccc6cnn(C)c56)c(Cl)cc24)SC[C@@H]3CN2CCN(C3CC3)CC2)C[C@H]1C` [Example 1310, (3S)-7-((2S,5R)-4-acryloyl-2,5-dimethylpiperazin-1-yl)-9-chloro-3-((4-cyclopropylpiperazin-1-yl)methyl)-10-(1-methyl-1H-indazol-7-yl)-2,3-dihydro-5H-[1,4]thiazino[2,3,4-ij]quinazolin-5-one], for which the “% CAF 10 uM @ 60 min” value stood at 95%.

Consider `C=CC(=O)N1CCN(c2nc(=O)n3c4c(c(-c5cc(Cl)c(F)cc5F)c(C(F)(F)F)cc24)SC[C@@H]3CN2C[C@@H]3C[C@H]2CO3)CC1` [Example 1311], for which the “% CAF 10 uM @ 60 min” value stood at 95.4%.

For the compound `C=CC(=O)N1[C@H](C)CN(c2nc(=O)n3c4c(c(-c5ccc(F)c(Cl)c5)c(C(F)(F)F)cc24)SC[C@@H]3COC)C[C@@H]1C` [Example 1316, (S)-7-((3S,5R)-4-acryloyl-3,5-dimethylpiperazin-1-yl)-10-(3-chloro-4-fluorophenyl)-3-(methoxymethyl)-9-(trifluoromethyl)-2,3-dihydro-5H-[1,4]thiazino[2,3,4-ij]quinazolin-5-one], the “% CAF 10 uM @ 60 min” value is 96%.

With `C=CC(=O)N1CCN(c2nc(=O)n3c4c(c(-c5ccc(F)cc5)c(C(F)(F)F)cc24)SC[C@@H]3CN2CCN(C3CC3)CC2)CC1` [Example 1321, (S)-7-(4-acryloylpiperazin-1-yl)-3-((4-cyclopropylpiperazin-1-yl)methyl)-10-(4-fluorophenyl)-9-(trifluoromethyl)-2H-[1,4]thiazino[2,3,4-ij]quinazolin-5(3H)-one], the “% CAF 10 uM @ 60 min” value worked out at 99.3%.

As for `C=CC(=O)N1C[C@H](C)N(c2nc(=O)n3c4c(c(-c5ccc(F)cc5)c(C(F)(F)F)cc24)SC[C@@H]3COCOC)C[C@H]1C` [Example 1328, (S)-7-((2S,5R)-4-acryloyl-2,5-dimethylpiperazin-1-yl)-10-(4-fluorophenyl)-3-((methoxymethoxy)methyl)-9-(trifluoromethyl)-2,3-dihydro-5H-[1,4]thiazino[2,3,4-ij]quinazolin-5-one], the “% CAF 10 uM @ 60 min” value turned out to be 93.8%.

Consider `C=CC(=O)N1[C@H](C)CN(c2nc(=O)n3c4c(c(-c5ccc(F)cc5)c(C(F)(F)F)cc24)SC[C@@H]3CN2CCN(C3CC3)CC2)C[C@@H]1C` [Example 1333, (S)-7-((3S,5R)-4-acryloyl-3,5-dimethylpiperazin-1-yl)-3-((4-cyclopropylpiperazin-1-yl)methyl)-10-(4-fluorophenyl)-9-(trifluoromethyl)-2,3-dihydro-5H-[1,4]thiazino[2,3,4-ij]quinazolin-5-one], for which the “% CAF 10 uM @ 60 min” value turned out to be 61%.

Still in this experiment, the particulars now being: 10 μM compound, after 1 hour.
For the compound `C=CC(=O)N1[C@H](C)CN(c2nc(=O)n3c4c(c(-c5cc(Br)c(F)cc5F)c(C(F)(F)F)cc24)SC[C@@H](OC)C3)C[C@@H]1C` [Example 1239, (3S)-8-((3S,5R)-4-acryloyl-3,5-dimethylpiperazin-1-yl)-11-(5-bromo-2,4-difluorophenyl)-3-methoxy-10-(trifluoromethyl)-3,4-dihydro-2H,6H-[1,4]thiazepino[2,3,4-ij]quinazolin-6-one], the “CAF (% after 1 hour)” value was 95%.

`C=CC(=O)N1[C@H](C)CN(c2nc(=O)n3c4c(c(-c5cc(Cl)c(F)cc5F)c(C(F)(F)F)cc24)SC[C@@H](NCC(F)(F)F)C3)C[C@@H]1C` [Example 1240, (3S)-8-((3S,5R)-4-acryloyl-3,5-dimethylpiperazin-1-yl)-11-(5-chloro-2,4-difluorophenyl)-3-((2,2,2-trifluoroethyl)amino)-10-(trifluoromethyl)-3,4-dihydro-2H,6H-[1,4]thiazepino[2,3,4-ij]quinazolin-6-one]: the “CAF (% after 1 hour)” value is on record as 91%.

With `C=CC(=O)N1[C@H](C)CN(c2nc(=O)n3c4c(c(-c5cc(Cl)c(F)cc5F)c(C(F)(F)F)cc24)SCC2(CN(CC(F)(F)F)C2)C3)C[C@@H]1C` [Example 1241, 8′-((3S,5R)-4-acryloyl-3,5-dimethylpiperazin-1-yl)-11′-(5-chloro-2,4-difluorophenyl)-1-(2,2,2-trifluoroethyl)-10′-(trifluoromethyl)-2′H,4′H,6′H-spiro[azetidine-3,3′-[1,4]thiazepino[2,3,4-ij]quinazolin]-6′-one], the “CAF (% after 1 hour)” value is given as 91%.

For `C=CC(=O)N1[C@H](C)CN(c2nc(=O)n3c4c(c(-c5nc(N)c(F)cc5F)c(C(F)(F)F)cc24)SC[C@@H](OC)C3)C[C@@H]1C` [Example 1242, (3S)-8-((3S,5R)-4-acryloyl-3,5-dimethylpiperazin-1-yl)-11-(6-amino-3,5-difluoropyridin-2-yl)-3-methoxy-10-(trifluoromethyl)-3,4-dihydro-2H,6H-[1,4]thiazepino[2,3,4-ij]quinazolin-6-one], the “CAF (% after 1 hour)” value was determined as 70%.

Consider `C=CC(=O)N1[C@H](C)CN(c2nc(=O)n3c4c(c(-c5cc(Cl)c(F)cc5F)c(C(F)(F)F)cc24)SCC2(CC(=O)C2)C3)C[C@@H]1C` [Example 1243, 8′-((3S,5R)-4-acryloyl-3,5-dimethylpiperazin-1-yl)-11′-(5-chloro-2,4-difluorophenyl)-10′-(trifluoromethyl)-2′H,4′H,6′H-spiro[cyclobutane-1,3′-[1,4]thiazepino[2,3,4-ij]quinazoline]-3,6′-dione], for which the “CAF (% after 1 hour)” value came out at 92%.
